In patent US4596675A, “Novel thiopeptolide substrates for vertebrate collagenase” (Monsanto Company, priority 1985, dated 1986):
Non-standard residues stand in square brackets, D forms with d. Residues, ends and D or L forms follow the SMILES beside them. *: point of attachment. Dnp = O=[N+]([O-])c1ccc(*)c([N+](=O)[O-])c1

Target: T1, collagenase (Homo sapiens, UniProt P03956)
T1 construct: endogenous in cells; host or cells: normal human skin fibroblasts (culture medium)
T1 sequence (P03956 100-469): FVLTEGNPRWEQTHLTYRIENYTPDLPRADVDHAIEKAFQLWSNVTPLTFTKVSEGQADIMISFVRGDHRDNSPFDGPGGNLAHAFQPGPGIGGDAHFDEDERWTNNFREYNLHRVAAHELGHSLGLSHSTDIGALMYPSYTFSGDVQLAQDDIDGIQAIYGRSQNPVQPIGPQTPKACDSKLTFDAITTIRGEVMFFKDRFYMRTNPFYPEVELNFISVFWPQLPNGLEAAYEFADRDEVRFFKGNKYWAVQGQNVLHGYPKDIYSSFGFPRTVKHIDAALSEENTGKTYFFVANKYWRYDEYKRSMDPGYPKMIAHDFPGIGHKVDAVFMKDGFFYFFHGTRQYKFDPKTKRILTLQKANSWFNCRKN
Test: Rate of hydrolysis of substrates by collagenase, assayed by HPLC
Format: biochemical
Conditions: Comparison of Substrate; assayed by HPLC (no chromophore)
Experimental: The following Table I sets forth the relative rates of hydrolysis in the above spectrophotometric assay using the above thiopeptolides as substrates in comparison to the rates of hydrolysis assayed by High Performance Liquid Chromatography (HPLC) of two commercially available substrates for collagenase and two other substrates described in copending Application Ser. No. 450,318, cited hereinbefore.

| Relative Rate (of hydrolysis) | Structure (SMILES) |
| --- | --- |
| 25 | CC[C@H](C)[C@H](NC(=O)CNC(=O)[C@H](CC(C)C)NC(=O)[C@@H]1CCCN1c1ccc([N+](=O)[O-])cc1[N+](=O)[O-])C(=O)N[C@@H](C)C(=O)NCC(=O)N[C@@H](CCCNC(=N)N)C(N)=O [DNP-Pro-Leu-Gly-Ile-Ala-Gly-Arg-NH2] (Dnp-PLGIAGR-NH2) |
| 250 | CCOC(=O)CNC(=O)[C@H](CC(C)C)NC(=O)[C@H](CC(C)C)NC(=O)CNC(=O)[C@H](CC(C)C)NC(=O)[C@@H]1CCCN1C(C)=O [Ac--Pro--Leu--Gly--Leu--Leu--Gly--OC2 H5] (Ac-PLGLLG-OEt) |
| 5 | CC[C@H](C)[C@H](NC(=O)CNC(=O)[C@H](CCC(N)=O)NC(=O)[C@@H]1CCCN1c1ccc([N+](=O)[O-])cc1[N+](=O)[O-])C(=O)N[C@@H](C)C(=O)NCC(=O)N[C@@H](CCC(N)=O)C(=O)N[C@H](CCCNC(=N)N)C(=O)O [DNP-Pro-Gln-Gly-Ile-Ala-Gly-Gln-D-Arg-OH] (Dnp-PQGIAGQ[dR]-OH) |
| 110 | CCOC(=O)CNC(=O)[C@H](C)NC(=O)[C@H](CC(C)C)NC(=O)CNC(=O)[C@H](CC(C)C)NC(=O)[C@@H]1CCCN1C(C)=O [Ac--Pro--Leu--Gly--Leu--Ala--Gly--OC2 H5] (Ac-PLGLAG-OEt) |
